In BindingDB's records for doi:10.7270/Q26T0K34 (The Scripps Research Institute Molecular Screening Center, 2010):

Target: Peroxisome proliferator-activated receptor gamma (Homo sapiens, UniProt P37231)
Assay: PubChem AID 463257

Chain of Peroxisome proliferator-activated receptor gamma (P37231 whole entry, looked up): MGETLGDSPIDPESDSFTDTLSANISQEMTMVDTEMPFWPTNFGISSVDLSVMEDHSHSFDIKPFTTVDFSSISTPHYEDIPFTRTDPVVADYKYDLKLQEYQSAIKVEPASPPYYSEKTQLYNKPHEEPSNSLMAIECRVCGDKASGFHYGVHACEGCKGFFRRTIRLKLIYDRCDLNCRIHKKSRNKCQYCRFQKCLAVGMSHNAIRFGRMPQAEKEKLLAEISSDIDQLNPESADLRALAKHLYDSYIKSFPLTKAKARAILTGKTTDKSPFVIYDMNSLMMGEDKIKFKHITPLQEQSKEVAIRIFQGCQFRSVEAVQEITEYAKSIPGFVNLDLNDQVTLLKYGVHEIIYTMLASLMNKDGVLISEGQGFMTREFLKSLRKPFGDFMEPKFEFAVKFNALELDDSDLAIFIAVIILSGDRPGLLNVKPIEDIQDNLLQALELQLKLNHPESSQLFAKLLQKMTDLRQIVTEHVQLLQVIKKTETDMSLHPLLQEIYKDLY

IC50: 24.7 µM
Structure (SMILES): COc1ccc(-n2cc(O)c(-c3nc(-c4ccccc4)cs3)c2N)cc1 [5-amino-1-(4-methoxyphenyl)-4-(4-phenyl-1,3-thiazol-2-yl)-2H-pyrrol-3-one]
